Assay results published in ChEMBL document CHEMBL1201862, “PubChem BioAssay data set” (2004).
Several values for one entry are separate records, joined by “and”; a condition that tells them apart may be missing. Identical values can stand only once.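 Exposure lasted 48 hours, with cells grown in 96-well plates and compounds tested at five concentrations. Abbreviation: GI50, concentration required for 50% inhibition of growth.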 Activity calls are given as the source filed them. Cut-off read from the data, not from the text of the source: active = GI50 up to about 1.1 µM and inactive = higher.

How the values were obtained:
Assay in all cases: NCI anticancer screen, dose series, 48 h
A498 = tested on: A498
TK-10 = tested on: TK-10
A549 = tested on: A549
NCI-H226 = tested on: NCI-H226
Malme-3M = tested on: Malme-3M
HOP-62 = tested on: HOP-62
PC-3 = tested on: PC-3
SK-MEL-5 = tested on: SK-MEL-5
HL-60 = tested on: HL-60
EKVX = tested on: EKVX
U-251 = tested on: U-251
UO-31 = tested on: UO-31
CAKI-1 = tested on: CAKI-1
NCI-H23 = tested on: NCI-H23
ACHN = tested on: ACHN
OVCAR-4 = tested on: OVCAR-4
SN12C = tested on: SN12C
SF-539 = tested on: SF-539
M14 = tested on: M14
CCRF-CEM = tested on: CCRF-CEM

Compound	GI50 (A498)	GI50 (TK-10)	GI50 (A549)	GI50 (NCI-H226)	GI50 (Malme-3M)	GI50 (HOP-62)	GI50 (PC-3)	GI50 (SK-MEL-5)	GI50 (HL-60)	GI50 (EKVX)	GI50 (U-251)	GI50 (UO-31)	GI50 (CAKI-1)	GI50 (NCI-H23)	GI50 (ACHN)	GI50 (OVCAR-4)	GI50 (SN12C)	GI50 (SF-539)	GI50 (M14)	GI50 (CCRF-CEM)
COC(=O)C1=C(C(=O)OC)N(c2ccncc2)C(c2ccco2)=CC1c1ccccc1[N+](=O)[O-] (stereo not given)	5.24 µM (inactive)	2.75 µM (inactive)	10.3 µM (inactive)	4.99 µM (inactive)	4.55 µM (inactive)	15.5 µM (inactive)	11.5 µM (inactive)	2.39 µM (inactive)	2.46 µM (inactive)	6.59 µM (inactive)	3.32 µM (inactive)	3.57 µM (inactive)	14.2 µM (inactive)	13.9 µM (inactive)	2.01 µM (inactive)	5.97 µM (inactive)	4.71 µM (inactive)	1.75 µM (inactive)	4.21 µM (inactive)	2.21 µM (inactive)
C=C(Cl)C(Cl)(CBr)CCC(Br)C(C)(C)Cl (stereo not given)	1.63 µM (inactive) and 2.79 µM (inactive) and 2.03 µM (inactive)	3.43 µM (inactive) and 1.93 µM (inactive) and 2.07 µM (inactive)	4.36 µM (inactive) and 2.48 µM (inactive) and 3.09 µM (inactive)	18.2 µM (inactive) and 17.5 µM (inactive) and 16 µM (inactive)	13.6 µM (inactive) and 15.3 µM (inactive) and 7.36 µM (inactive)	703 nM (active) and 785 nM (active) and 1.43 µM (inactive)	1.6 µM (inactive) and 904 nM (active) and 1 µM (active)	14.9 µM (inactive) and 12.7 µM (inactive) and 12.4 µM (inactive)	635 nM (active) and 733 nM (active) and 2.42 µM (inactive)	1.79 µM (inactive) and 7.05 µM (inactive) and 3.31 µM (inactive)	277 nM (active) and 1.41 µM (inactive) and 615 nM (active)	1.85 µM (inactive) and 6.27 µM (inactive) and 1.99 µM (inactive)	217 nM (active) and 1.02 µM (active) and 828 nM (active)	22.4 µM (inactive) and 16.3 µM (inactive) and 12 µM (inactive)	1.7 µM (inactive) and 1.18 µM (inactive) and 1.32 µM (inactive)	2.92 µM (inactive) and 1.6 µM (inactive) and 10.7 µM (inactive)	14.7 µM (inactive) and 4.2 µM (inactive) and 6.62 µM (inactive)	1.95 µM (inactive) and 446 nM (active) and 1.27 µM (inactive)	18.7 µM (inactive) and 15.6 µM (inactive) and 26.7 µM (inactive)	5.08 µM (inactive) and 12.5 µM (inactive) and 4.5 µM (inactive)
CC1(C)CCC[C@@]2(C)C1CC[C@@]1(CO)O[C@H](C3=CC(=O)OC3O)C[C@H]12 (stereo not given in full)	15 µM (inactive)	19.7 µM (inactive)	30.5 µM (inactive)	18.2 µM (inactive)	11 µM (inactive)	14.9 µM (inactive)	13.8 µM (inactive)	5.38 µM (inactive)	1.66 µM (inactive)	22.9 µM (inactive)	15.1 µM (inactive)	15.2 µM (inactive)	15 µM (inactive)	13.6 µM (inactive)	14 µM (inactive)	14.5 µM (inactive)	13.3 µM (inactive)	19.3 µM (inactive)	11.8 µM (inactive)	2.74 µM (inactive)
